Test results taken from patent US12054510B2, “2′ and/or 5′ amino-acid ester phosphoramidate 3′-deoxy adenosine derivatives as anti-cancer compounds” (Nucana plc, priority 2014, dated 2024).

Key:
K562 = assay: Solid tumour and haematological malignancy assay (CellTiterGlo); type: cell-based; details: Homo sapiens, K562, 72 h; for IC50: read-out: IC50 (absolute IC50); for Emax: read-out: MI %
Procedure: (§1) In vitro viability assay were performed to assess the effects of compounds on cell viability in selected cell lines over 72 hr using the CellTiterGlo (CTG, Promega-G7573) assay. […] Cell viability assay using CellTiterGlo in 96-well plate were performed. Compound treatment 72 hrs, standard growth conditions, duplicates. Compounds were dissolved to 40 mM with thawed 100%. […] After compounds were dissolved in media, media containing compounds were warmed to 37° C. in incubator and then compounds in media were added to cell plates (50 μl+50 μl) in duplicates. […] All compound solubilities were checked and recorded again, then the plates were transferred to CO2 tissue culture incubator immediately and incubated for 3 days. DMSO final concentration is 0.5%.

HEL92.1.7 = assay: as above; type: cell-based; details: Homo sapiens, HEL 92.1.7, 72 h, read-out: MI %
Procedure: as §1

HepG2 = assay: as above; type: cell-based; details: Homo sapiens, HepG2, 72 h; for Emax: read-out: MI %
Procedure: as §1

MiaPaCa-2 = assay: as above; type: cell-based; details: Homo sapiens, MIA PaCa-2, 72 h, read-out: MI %
Procedure: as §1

HL-60 = assay: as above; type: cell-based; details: Homo sapiens, HL-60, 72 h, read-out: MI %
Procedure: as §1

MCF7 = assay: as above; type: cell-based; details: Homo sapiens, MCF7, 72 h; for IC50: read-out: IC50 (absolute IC50); for Emax: read-out: MI %
Procedure: as §1

KG-1 = assay: as above; type: cell-based; details: Homo sapiens, KG-1, 72 h; for IC50: read-out: IC50 (absolute IC50); for Emax: read-out: MI %
Procedure: as §1

HT29 = assay: as above; type: cell-based; details: Homo sapiens, HT-29, 72 h; for IC50: read-out: IC50 (absolute IC50); for Emax: read-out: MI %
Procedure: as §1

CEM (TdT+ve) = assay: ATP ViaLight plus cell viability assay; type: cell-based, Human; details: for (FD) fold difference compared to control: CEM
Procedure: Certain compounds of the invention were subjected to further studies to test the cytotoxic activity of certain compounds of the invention and also to measure their activity against 4 haematological cancer cell lines • TdT positive CEM (Human ALL) • TdT negative K562 (Human CML) • TdT negative H1-60 (Human ANLL) • RL (CRL-2261) non-HD lymphoma • The concentrations of the active metabolite dATP (Cordycepin triphosphate) in these cell lines was also measured. • The cytotoxic activity and the intracellular 3′-dATP concentrations were also studied in the presence of hENT1, Adenosine Kinase (AK) and Adenosine Deaminase pharmacological inhibitors in CEM and RL cancer cell lines. Said inhibitors that mimic known cancer resistance mechanisms. Methods Cell Culture
HL-60, K562, CCRF-CEM and RL cell lines were cultured in RPMI-1640 medium (Sigma Aldrich, UK), which were supplemented with 10% Fetal Bovine Serum (FBS) (PAA Laboratories), 1% amphotericin B (5.5 ml) and 1% penicillin/streptomycin (5.5 ml) (PAA Laboratories) and grown in flasks at 37° C. incubator with 5% CO2.
The amount of ATP was used as a measurement of cell number and cell viability. ATP ViaLight™ plus assay kit (Lonza, USA: Product No. LT07-121) to detect ATP in cells treated in luminescence compatible 96 well plates (initial concentration of cells was 1×10^4 cells/well) with cordycepin and ProTides at concentrations of: 0, 0.1, 0.5, 1, 5 and 10 μM, followed by incubation for 72 hours at 37° C. incubator with 5% CO2. For inhibitor studies, 10 μM of NBTI or 1 μM EHNA or A-134974 was added and left for 5 minutes before adding the drugs (see section 5 for inhibitor details).
After incubation, 50 μl of cell lysis reagent was added to the 96 well plates to release the intracellular ATP, followed by 100 μl of ATP monitoring reagent (AMR). The luminescent values of each well were determined using FLUOstar OPTIMA microplate reader (BMG Labtech) which convert ATP into light by using luciferase enzyme. Therefore, the amount of luminescence produced was directly proportional to the amount of ATP.
Cell lines were treated in the same way as described above but before treatment with drugs, a number of inhibitors were added: • 1) Nitrobenzylthioinosine (NBTI) (Sigma-Aldrich, St. Louis, MO, product # N2255) blocks nucleoside transporters • 2) EHNA hydrochloride (Sigma-Aldrich, St. Louis, MO, product # E114) blocks adenosine deaminase • 3) Adenosine kinase inhibitor A-134974 dihydrochloride hydrate (Sigma-Aldrich, St. Louis, MO, product # A2846): blocks adenosine kinase
The dose-response curves of cytotoxicity of the drugs was determined using non-linear regression analysis of percentage cell viability versus concentration and EC50 values were obtained. The intracellular assay was conducted in five replicates for each condition. Intracellular assay was determined using paired t test (two-tailed) analysis of 3′ ATP/ATP concentration and p-values were obtained. For all the analysis, Prism Software program (GraphPad Software) was used and Microsoft Powerpoint® 2013 was used to plot the results.

RPMI-8226 = assay: Solid tumour and haematological malignancy assay (CellTiterGlo); type: cell-based, Human; details: for MI %: RPMI-8226, 72 hr
Procedure: (§2) In vitro viability assay were performed to assess the effects of compounds on cell viability in selected cell lines over 72 hr using the CellTiterGlo (CTG, Promega-G7573) assay. The tests were performed in duplicates with treatment of compounds at 9 points, 3.16 folds titration in 96 well plates over ˜72 hr. The compound starting concentrations were […]. Cell viability assay using CellTiterGlo in 96-well plate were performed. Compound treatment 72 hrs, standard growth conditions, duplicates. Compounds were dissolved to 40 mM with thawed […]. Compounds were serially diluted at 3.16 fold in thawed DMSO, and warmed to 37° C. before being dissolved in media (2 μl+200 μl). After compounds were dissolved in media, media containing compounds were warmed to 37° C. in incubator and then compounds in media were added to cell plates (50 μl+50 μl) in duplicates. The compounds' final concentrations were from 198M to 19.9 nM. All compound solubilities were checked and recorded again, then the plates were transferred to CO2 tissue culture incubator immediately and incubated for 3 days. DMSO final concentration is 0.5%.

Jurkat = assay: as above; type: cell-based; details: for MI %: 72 hr; for IC50: Homo sapiens, 72 h, read-out: IC50 (absolute IC50)
Procedure: as §2

BxPC-3 = assay: as above; type: cell-based; details: 72 hr
Procedure: as §2

HS445 = assay: as above; type: cell-based; details: 72 hr
Procedure: as §2

SMILES | IC50 (K562) | Emax (HEL92.1.7) | Emax (HepG2) | Emax (MiaPaCa-2) | Emax (HL-60) | IC50 (MCF7) | Emax (MCF7) | IC50 (KG-1) | IC50 (HT29) | Emax (HT29) | (FD) fold difference compared to Cordycepin = Cordycepin IC50/ProTide IC50 (CEM (TdT+ve); CEM (TdT+ve)) | (FD) fold difference compared to control (CEM (TdT+ve); AK) | (FD) fold difference compared to control (CEM (TdT+ve); EHNA) | (FD) fold difference compared to control (CEM (TdT+ve); NBTI) | MI % (RPMI-8226) | MI % (Jurkat) | MI % (BxPC-3) | MI % (HS445) | Emax (K562) | Emax (KG-1) | further results
COC(=O)C(C)(C)NP(=O)(OC[C@@H]1C[C@@H](O)[C@H](n2cnc3c(N)ncnc32)O1)Oc1cccc2ccccc12 (stereo partly drawn) [E, Methyl 2-(((((2S,4R,5R)-5-(6-amino-9H-purin-9-yl)-4-hydroxytetrahydrofuran-2-yl)-methoxy)(naphthalen-1-yloxy)phosphoryl)amino)-2-methylpropanoate] | 5 to 15 µM | 101% | 67% | 91% | 95% | 5 to 15 µM | 89% | 15 to 100 µM | 15 to 100 µM | 76% | 2 | 1 | 1 | 2 | 89% | 95% | 71% | 85% | – | – | IC50 (HepG2; read-out: IC50 (absolute IC50)): 15 to 100 µM
CCOC(=O)CCc1ccccc1OP(=O)(N[C@@H](C)C(=O)OCc1ccccc1)OC[C@@H]1C[C@@H](O)[C@H](n2cnc3c(N)ncnc32)O1 (stereo partly drawn) [F, (2S)-benzyl 2-(((((2S,4R,5R)-5-(6-amino-9H-purin-9-yl)-4-hydroxytetrahydrofuran-2-yl)methoxy)(2-(3-ethoxy-3-oxopropyl)phenoxy)phosphoryl)amino)propanoate] | – | 99% | 79% | 101% | 96% | 5 to 15 µM | 103% | 15 to 100 µM | 15 to 100 µM | 89% | 5 | – | – | – | 106% | 100% | 78% | 92% | 93% | 95% | IC50 (CEM (TdT+ve); Homo sapiens, 72 h, CEM (TdT+ve), 72 hours): 4.3 µM; IC50 (RPMI-8226; Homo sapiens, RPMI-8226, 72 h, read-out: IC50 (absolute IC50)): 15 to 100 µM; IC50 (Jurkat): 100 to 5000 nM
C[C@H](NP(=O)(OC[C@@H]1C[C@@H](O)[C@H](n2cnc3c(N)ncnc32)O1)Oc1cccc2ccccc12)C(=O)OCc1ccccc1 (stereo partly drawn) [B, (2S)-benzyl 2-(((((2S,4R,5R)-5-(6-amino-9H-purin-9-yl)-4-hydroxytetrahydrofuran-2-yl)methoxy)(naphthalen-1-yloxy)phosphoryl)amino)propanoate] | 0.1 to 5 µM | 98% | 98% | 98% | 99% | 0.1 to 5 µM | 96% | 5 to 15 µM | 5 to 15 µM | 98% | 150 | 1 | 1 | 1 | 102% | 100% | 90% | 96% | 99% | 97% | IC50 (Jurkat): 100 to 5000 nM
